Tests used:
[1] = target: T1, cloned human 5HT2A receptor (Homo sapiens, UniProt P28223); assay: 5HT2A functional assay, intracellular Ca2+ in HEK-293 cells; assay type: cell-based
T1 construct: expressed in transfected cells; host or cells: HEK-293 cells
Method: (§1) Agonist effects at the 5HT2A receptor were assessed by incubation at 22° C. of a series of concentrations of test compound with intact HEK-293 cells heterologously expressing the cloned human 5HT2A receptor and measuring intracellular [Ca^2+] by fluorimetry according to the method of Jerman et al., 2001, Eur. J. Pharmacol. 414:23-30). Antagonist effects were assessed by the ability of a series of concentrations of test compound to block the increase in intracellular [Ca^2+] that occurred in the presence of 3.0 nM serotonin under the same conditions. EC50 and IC50 values were determined using standard methods.

[2] = target: T2, cloned human 5HT2C receptor (Homo sapiens, UniProt P28335); assay: 5HT2C functional assay, intracellular Ca2+ in CHO cells; assay type: cell-based
T2 construct: expressed in transfected cells; host or cells: CHO cells
T2 sequence (P28335 33-458): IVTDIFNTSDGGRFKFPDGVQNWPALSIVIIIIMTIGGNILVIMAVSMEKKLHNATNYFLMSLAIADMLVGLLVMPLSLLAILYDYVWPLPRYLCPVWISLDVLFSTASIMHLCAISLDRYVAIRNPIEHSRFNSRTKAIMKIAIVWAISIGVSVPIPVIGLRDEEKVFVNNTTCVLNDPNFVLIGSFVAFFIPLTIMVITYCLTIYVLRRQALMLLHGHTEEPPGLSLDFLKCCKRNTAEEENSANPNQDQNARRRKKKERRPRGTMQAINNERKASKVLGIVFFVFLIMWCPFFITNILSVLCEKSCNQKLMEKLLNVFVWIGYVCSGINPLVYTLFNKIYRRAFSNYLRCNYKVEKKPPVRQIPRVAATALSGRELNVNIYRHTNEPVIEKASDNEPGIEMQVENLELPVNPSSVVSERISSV
Method: as §1, with “5HT2C” for “5HT2A”, “CHO” for “HEK-293”, “414:23-30.” for “414:23-30).”

[3] = target: T3, human recombinant CYP2D6 (Homo sapiens, UniProt P10635); assay: CYP2D6 inhibition, MAMC substrate; assay type: in vitro ADME; conditions: microsomes with human recombinant CYP2D6; read-out: CYP2D6 Isoenzyme IC50
T3 construct: purchased BD Bioscience
Method: Protocol. […] The source of the enzyme was microsomes containing human recombinant CYP2D6 obtained from BD Bioscience. Conversion of MAMC to 7-hydroxy-4-(aminomethyl)coumarin was measured using a PerkinElmer Fusion with a 390 nm excitation filter and a 460 nm emission filter.

[4] = system: L5 SNL rats; assay: L5 Single Nerve Ligation model of neuropathic pain, tactile allodynia (von Frey); assay type: in vivo, rat
Method: Protocol. The antiallodynic activity of (−)-beloxepin was tested in vivo using the L5—Single Nerve Ligation model of non-nociceptive neuropathic pain as described in LaBuda & Little, 2005, J. Neurosci. Methods 144:175-181. The test animals were placed in a Plexiglas chamber (10 cm×20 cm×25 cm) and habituated for 15 minutes. The chamber was positioned on top of a mesh screen so that von Frey monofilaments could be presented to the plantar surface of both hindpaws. Measurement of tactile sensitivity for each hind paw were obtained using the up/down method (Dixon, 1980, Annu. Rev. Pharmacol. Toxicol. 20:441-462) with seven Frey monofilaments (0.4, 1, 2, 4, 6, 8 and 15 grams). Each trial started with a von Frey force of 2 grams delivered to the right hind paw for approximately 1-2 seconds and then the left hind paw. If there was no withdrawal response, the next higher force was delivered. If there was a response, the next lower force was delivered. This procedure was performed until no response was made at the highest force (15 grams) or until four stimuli were administered following the initial response. The 50% paw withdrawal threshold for each paw was calculated using the following formula: [Xth]log=[vFr]log+ky, where [vFr] is the force of the last von Frey used, k=0.2249 which is the average interval (in log units) between the von Frey monofilaments, and y is a value that depends upon the pattern of withdrawal responses (Dixon, 1980, supra). […] Testing for tactile sensitivity was performed twice and the mean 50% withdrawal value assigned as the tactile sensitivity for the right and left paws for each animal.
Results. The antiallodynic effects produced by (−)-beloxepin (30 mg/kg IP) and (+)-beloxepin (30 mg/kg IP) in L5 SNL rats 8 days post surgery are illustrated in FIG. 1. In this experiment, at 8 days post surgery, rats were treated with vehicle or beloxepin enantiomers (30 mg/kg IP) and tested for tactile allodynia at 30 min post treatment. […] No side effects were observed following treatment with either enantiomer.
The antiallodynic effects produced by (−)-beloxepin (30 mg/kg IP) in L5 SNL rats 14 days post surgery are illustrated in FIG. 2. In this experiment, at 14 days post surgery, rats were treated with vehicle or (−)-beloxepin and tested for tactile allodynia at 30, 60, 120 and 240 min post treatment. Vehicle treated rats were tested at 30 min post treatment.
Protocol. A time course experiment was performed with (−)-beloxepin (60 mg/kg PO) in L5 SNL rats at 7 days post-surgery. Rats were tested at 30, 60, 120, and 240 minutes post-drug.
Protocol. A time course experiment was also performed with (+)-beloxepin (60 mg/kg PO) in L5 SNL rats at 14 days post-surgery. Rats were tested at 30, 60, 120, and 240 minutes post-drug.

[5] = system: rat hindpaw incision model; assay: rat hindpaw incisional pain model, tactile allodynia; assay type: in vivo; conditions: 30 mg/kg IP, 24 hours post-surgery
Method: Protocol. A time course experiment was also performed with (−)-beloxepin in the hindpaw incision model. At 24 hours post-surgery, rats received vehicle or (−)-beloxepin (30 mg/kg IP). Rats were tested for tactile allodynia at 30, 60, 120 and 240 minutes after administration of (−)-beloxepin.
Protocol. Another time course experiment was performed with (+)-beloxepin in the hindpaw incision model. At 24 hours post-surgery, rats received vehicle or (+)-beloxepin (30 mg/kg IP). Rats were tested for tactile allodynia at 30, 60, 120 and 240 minutes after administration of (+)-beloxepin.

[6] = antagonist mode, vs 3.0 nM serotonin

T1 sequence (P28223 whole entry): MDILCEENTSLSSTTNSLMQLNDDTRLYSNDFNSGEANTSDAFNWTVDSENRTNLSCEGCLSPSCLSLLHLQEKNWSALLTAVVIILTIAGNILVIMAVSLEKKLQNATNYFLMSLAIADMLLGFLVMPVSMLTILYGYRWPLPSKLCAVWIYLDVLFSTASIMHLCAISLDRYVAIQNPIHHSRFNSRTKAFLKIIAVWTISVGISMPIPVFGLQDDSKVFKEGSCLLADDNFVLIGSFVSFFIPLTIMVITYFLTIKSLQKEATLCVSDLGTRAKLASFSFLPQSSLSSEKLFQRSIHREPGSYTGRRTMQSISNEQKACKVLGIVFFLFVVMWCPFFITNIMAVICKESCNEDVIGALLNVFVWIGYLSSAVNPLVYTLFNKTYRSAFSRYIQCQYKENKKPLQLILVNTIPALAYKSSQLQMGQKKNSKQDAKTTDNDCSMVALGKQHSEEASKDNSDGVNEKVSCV
T3 sequence (P10635 whole entry): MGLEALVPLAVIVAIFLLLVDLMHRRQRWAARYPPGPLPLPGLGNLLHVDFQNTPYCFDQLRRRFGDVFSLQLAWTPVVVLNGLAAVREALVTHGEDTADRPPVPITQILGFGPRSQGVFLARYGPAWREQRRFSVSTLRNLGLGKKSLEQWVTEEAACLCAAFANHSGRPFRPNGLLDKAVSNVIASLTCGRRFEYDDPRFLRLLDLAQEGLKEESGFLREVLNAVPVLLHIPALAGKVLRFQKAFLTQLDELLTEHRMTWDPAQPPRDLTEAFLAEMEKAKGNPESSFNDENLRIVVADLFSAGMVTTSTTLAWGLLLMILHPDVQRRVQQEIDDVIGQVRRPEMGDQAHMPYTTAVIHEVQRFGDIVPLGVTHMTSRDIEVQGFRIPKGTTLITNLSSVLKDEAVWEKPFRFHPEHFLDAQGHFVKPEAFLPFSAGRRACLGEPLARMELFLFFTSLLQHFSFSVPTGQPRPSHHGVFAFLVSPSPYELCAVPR

Cc1cccc2c1Oc1ccccc1C1(O)CCN(C)CC21 (single isomer, unassigned; (+)) [(+)-beloxepin] was tested, and the “5HT2A functional activity type” value [1] was “antagonist”, the IC50 [1, 6] was 1.6 µM and the “5HT2C functional activity type” value [2] was “antagonist”. The IC50 [2, 6] was 7.2 µM, the IC50 [3] was 0.236 µM and the “antiallodynic effect” value ([4]; 30 mg/kg IP, 8 days post surgery, 30 min post treatment) was “not statistically significant”. For the same compound, the “antiallodynic effect” value ([4]; 60 mg/kg PO, 14 days post-surgery, tested 30, 60, 120, 240 min) was “did not produce significant antiallodynic effects at any time point”, the “maximum hindpaw withdrawal threshold” value ([5]; 30 minute time point) was about 28 grams and the “antiallodynic effect” value ([5]; tested 30, 60, 120, 240 min) was “significant antiallodynic effect at the 30 and 60 minute time points”.

Source: patent publication US20090233957A1, “(-)-BELOXEPIN AND METHODS FOR ITS SYNTHESIS AND USE” (priority 2008, published 2009)
